One may read the IC50 as the concentration needed to halve the response being measured. Broadly, the Ki is a measure of affinity in units of concentration, obtained from inhibition or displacement.

Read-outs that look alike come from different tables or passages of the source. Where a SMILES comes first, the peptide text is derived from it. Bridges are numbered along the chain shown (N, C = ends). [ ]: non-standard residue; d: D form. dPhe(4-CF3) = N[C@H](Cc1ccc(C(F)(F)F)cc1)C(=O)O; R8 = C=CCCCCCC[C@@](C)(N)C(=O)O; S8 = C=CCCCCCC[C@](C)(N)C(=O)O; Cba = N[C@@H](CC1CCC1)C(=O)O; R5 = C=CCCC[C@@](C)(N)C(=O)O; S5 = C=CCCC[C@](C)(N)C(=O)O; Nle = CCCC[C@H](N)C(=O)O; Aib = CC(C)(N)C(=O)O

One experiment addresses MDM2 (Homo sapiens, UniProt Q00987). The experiment is described as follows: Competitive fluorescence polarization assay for MDM2. It is filed as binding. Particulars: for Ki: read-out: Ki (MDM2). For orientation: In fluorescence polarisation assays a small probe gives low polarisation when free and higher when bound to something large.
The next experiment deals with T1, MDMX (Homo sapiens, UniProt O15151).
T1 sequence (O15151 1-125): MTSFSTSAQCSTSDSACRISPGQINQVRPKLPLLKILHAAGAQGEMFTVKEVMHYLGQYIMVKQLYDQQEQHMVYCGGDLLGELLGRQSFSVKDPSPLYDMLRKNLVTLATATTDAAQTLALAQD
The experiment is described as follows: Competitive fluorescence polarization assay for MDMX. The following applies: competitive FP assay; for IC50: read-out: IC50 (MDMX); for Ki: read-out: Ki (MDMX). It is filed as binding.

The test system of a further experiment is Caspase 3. The experiment can be described thus: Caspase 3 detection assay in SJSA1 cells. It is filed as cell-based. Particulars: 48 h, Caspase 3 activation over DMSO-treated cells; for caspase 3 uM: 3 uM peptide; for caspase 10 uM: 10 uM peptide; for caspase 30 uM: 30 uM peptide; for caspase 0.3 uM: 0.3 uM peptide.
The mark [1] stands for this setting: competitive FP assay, MDM2, read-out: IC50 (MDM2).

MDM2, sequence (Q00987 1-125): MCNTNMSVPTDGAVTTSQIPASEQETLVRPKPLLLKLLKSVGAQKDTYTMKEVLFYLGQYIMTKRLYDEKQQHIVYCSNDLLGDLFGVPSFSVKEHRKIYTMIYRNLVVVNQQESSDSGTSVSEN

Regarding `CC[C@H](C)[C@H](NC(=O)[C@H](C)NC(=O)[C@H](C)NC(=O)[C@]1(C)CCCC=CCCCCCC[C@@](C)(NC(=O)[C@H](Cc2ccccc2)NC(=O)[C@@H](NC(=O)[C@H](CC(C)C)NC(C)=O)[C@@H](C)O)C(=O)N[C@@H](C)C(=O)N[C@@H](Cc2ccc(O)cc2)C(=O)N[C@@H](Cc2c[nH]c3ccccc23)C(=O)N[C@@H](C)C(=O)N[C@@H](CCC(N)=O)C(=O)N[C@@H](CC(C)C)C(=O)N1)C(=O)N[C@H](C)C(N)=O` (single isomer, unassigned) [compound 70], the IC50 on MDM2 (setting [1]) lay within 100 to 1000 nM. For the same molecule, at MDM2 (competitive FP assay, MDM2), the Ki is below 10 nM. In addition, at MDMX, the IC50 was 100 to 1000 nM and the Ki lay within 10 to 100 nM. Further, in the experiment with Caspase 3, the “caspase 3 uM” value is reported as 1, the “caspase 10 uM” value turned out to be 9 and the “caspase 30 uM” value is 26.
For `CC(=O)N[C@@H](CC(C)C)C(=O)N[C@H](C(=O)N[C@@H](Cc1ccccc1)C(=O)N[C@]1(C)CCCCCCC=CCCC[C@@](C)(C(=O)N[C@@H](C)C(=O)N[C@H](C(=O)NCC(N)=O)C(C)C)NC(=O)[C@H](CC(C)C)NC(=O)[C@H](CCC(N)=O)NC(=O)[C@H](C)NC(=O)[C@H](Cc2c[nH]c3ccccc23)NC(=O)[C@H](Cc2ccc(O)cc2)NC(=O)[C@H](C)NC1=O)[C@@H](C)O` (single isomer, unassigned) [compound 109], in the experiment on Caspase 3, the “caspase 3 uM” value amounted to 4, the “caspase 10 uM” value is 16 and the “caspase 30 uM” value was determined as 25.
Take `CC(=O)N[C@@H](C)C(=O)N[C@@H](C)C(=O)N[C@@H](CC(C)C)C(=O)N[C@H](C(=O)N[C@@H](Cc1ccccc1)C(=O)N[C@]1(C)CCCCCCC=CCCC[C@@](C)(C(=O)N[C@@H](CO)C(=O)N[C@@H](C)C(=O)N[C@@H](C)C(=O)N[C@@H](C)C(=O)N[C@H](C)C(N)=O)NC(=O)[C@H](CC2CCC2)NC(=O)[C@H](CCC(N)=O)NC(=O)[C@H](C)NC(=O)[C@H](Cc2c[nH]c3ccccc23)NC(=O)[C@H](Cc2ccc(O)cc2)NC(=O)[C@H](CCC(=O)O)NC1=O)[C@@H](C)O` (single isomer, unassigned) [compound 358]: in the experiment with Caspase 3, the “caspase 0.3 uM” value came to 1, the “caspase 3 uM” value was determined as 3, the “caspase 10 uM” value is 6 and the “caspase 30 uM” value is 24. Further, in the experiment with Caspase 3 (1 uM peptide), the “caspase 1 uM” value was found to be 2.
Turning to `CC(=O)N[C@@H](CC(C)C)C(=O)N[C@H](C(=O)N[C@@H](Cc1ccccc1)C(=O)N[C@]1(C)CCCCCCC=CCCC[C@@](C)(C(=O)N[C@@H](CO)C(=O)N[C@@H](C)C(=O)NC(C)(C)C(N)=O)NC(=O)[C@H](CC(C)C)NC(=O)[C@H](CCC(N)=O)NC(=O)[C@H](C)NC(=O)[C@H](Cc2c[nH]c3ccccc23)NC(=O)[C@H](Cc2ccc(O)cc2)NC(=O)[C@H](C)NC1=O)[C@@H](C)O` [compound 10] (Ac-LTF[R8]AYWAQL[S5]SA[Aib]-NH2; staple 4-11), the IC50 at MDM2 (setting [1]) lay within 100 to 1000 nM. For the same molecule, the Ki on MDM2 (competitive FP assay, MDM2) lay within 10 to 100 nM. Further, on MDMX, the half-maximal inhibitory concentration (IC50) lay within 100 to 1000 nM and the Ki is 10 to 100 nM. In the experiment with Caspase 3, the “caspase 0.3 uM” value is reported as 1, the “caspase 3 uM” value is reported as 1, the “caspase 10 uM” value worked out at 17 and the “caspase 30 uM” value amounted to 32.
With `CC(=O)N[C@@H](CC(C)C)C(=O)N[C@H](C(=O)N[C@@H](Cc1ccccc1)C(=O)N[C@]1(C)CCCCCCC=CCCC[C@@](C)(C(=O)N[C@@H](C)C(=O)N[C@@H](Cc2c[nH]cn2)C(=O)N[C@@H](Cc2ccccc2)C(=O)N[C@@H](C)C(N)=O)NC(=O)[C@H](CC(C)C)NC(=O)[C@H](CCC(N)=O)NC(=O)[C@H](C)NC(=O)[C@H](Cc2c[nH]c3ccccc23)NC(=O)[C@H](Cc2ccc(O)cc2)NC(=O)[C@H](C)NC1=O)[C@@H](C)O` [compound 50] (Ac-LTF[R8]AYWAQL[S5]AHFA-NH2; staple 4-11), at MDM2 (setting [1]), the IC50 was 10 to 100 nM. The Ki at MDM2 (competitive FP assay, MDM2) is below 10 nM. At MDMX, the IC50 fell in the range of 100 to 1000 nM and the Ki lay within 10 to 100 nM. Further, in the experiment with Caspase 3, the “caspase 3 uM” value is reported as 8, the “caspase 10 uM” value worked out at 29 and the “caspase 30 uM” value turned out to be 29.
As to `CC(=O)N[C@@H](CCC(=O)O)C(=O)N[C@H](C(=O)N[C@@H](Cc1ccccc1)C(=O)N[C@]1(C)CCCCCCC=CCCC[C@@](C)(C(=O)N[C@@H](CO)C(=O)N[C@@H](CC(C)C)C(=O)N[C@@H](C)C(N)=O)NC(=O)[C@H](CC(C)C)NC(=O)[C@H](CCC(N)=O)NC(=O)[C@H](C)NC(=O)[C@H](Cc2c[nH]c3ccccc23)NC(=O)[C@H](Cc2ccc(O)cc2)NC(=O)[C@H](C(C)C)NC1=O)[C@@H](C)O` [compound 127] (Ac-ETF[R8]VYWAQL[S5]SLA-NH2; staple 4-11), the IC50 on MDM2 (setting [1]) is below 10 nM. Also, the Ki on MDM2 (competitive FP assay, MDM2) was below 10 nM. Also, on MDMX, the IC50 fell in the range of 100 to 1000 nM and the Ki was 10 to 100 nM. For the same molecule, in the experiment with Caspase 3, the “caspase 0.3 uM” value is reported as 1, the “caspase 3 uM” value was 1, the “caspase 10 uM” value came out at 4 and the “caspase 30 uM” value was 13.
As for `CCCC[C@H](NC(=O)[C@H](C)NC(=O)[C@H](C)NC(=O)[C@]1(C)CCCC=CCCCCCC[C@@](C)(NC(=O)[C@H](Cc2ccccc2)NC(=O)[C@@H](NC(=O)[C@H](CC(C)C)NC(C)=O)[C@@H](C)O)C(=O)N[C@@H](CCC(=O)O)C(=O)N[C@@H](Cc2ccc(O)cc2)C(=O)N[C@@H](Cc2c[nH]c3ccccc23)C(=O)N[C@@H](C)C(=O)N[C@@H](CCC(N)=O)C(=O)N[C@@H](CC2CCC2)C(=O)N1)C(=O)N[C@@H](C)C(N)=O` [compound 238] (Ac-LTF[R8]EYWAQ[Cba][S5]AA[Nle]A-NH2; staple 4-11), the IC50 on MDM2 (setting [1]) lay within 10 to 100 nM. The Ki at MDM2 (competitive FP assay, MDM2) was below 10 nM. Besides, on MDMX, the IC50 was in the range of 10 to 100 nM and the Ki lay in the range of 10 to 100 nM. Further, in the experiment on Caspase 3, the “caspase 0.3 uM” value is reported as 1, the “caspase 3 uM” value amounted to 2, the “caspase 10 uM” value is recorded as 4 and the “caspase 30 uM” value came out at 21.
With `CC(=O)N[C@@H](C(=O)N[C@H](C)C(=O)N[C@H](Cc1c[nH]c2ccccc12)C(=O)N[C@H](Cc1ccc(O)cc1)C(=O)N[C@H](C)C(=O)N[C@]1(C)CCCC=CCCC[C@](C)(C(=O)N[C@H](CC(C)C)C(=O)N[C@H](CCCNC(=N)N)C(N)=O)NC(=O)[C@@H](CCCCN)NC(=O)[C@@H](CCC(=O)O)NC(=O)[C@@H](Cc2ccc(C(F)(F)F)cc2)NC1=O)[C@H](C)O` [compound 754], the results for the IC50 on MDM2 (setting [1]) and at MDMX were 100 to 1000 nM and above 1000 nM, respectively.
On to `CC(=O)N[C@@H](C(=O)N[C@H](C)C(=O)N[C@H](Cc1c[nH]c2ccccc12)C(=O)N[C@H](Cc1ccc(O)cc1)C(=O)N[C@H](C)C(=O)N[C@H](CC(N)=O)C(=O)N[C@H](Cc1ccc(C(F)(F)F)cc1)C(=O)N[C@H](CCC(=O)O)C(=O)N[C@]1(C)CCCC=CCCC[C@](C)(C(=O)N[C@H](C)C(N)=O)NC(=O)[C@@H](CCCNC(=N)N)NC(=O)[C@@H](CC(C)C)NC(=O)[C@@H](CC(C)C)NC1=O)[C@H](C)O` [compound 755] (Ac-[dT][dA][dW][dY][dA][dN][dPhe(4-CF3)][dE][R5][dL][dL][dR][R5][dA]-NH2; staple 9-13), for which the figures for the IC50 on MDM2 (setting [1]) and on MDMX were below 10 nM and above 1000 nM, respectively.
On to `CC(=O)N[C@@H](C(=O)N[C@@]1(C)CCCCCCC=CCCC[C@](C)(C(=O)N[C@H](CC(C)C)C(=O)N[C@H](CC(C)C)C(=O)N[C@H](CCCNC(=N)N)C(N)=O)NC(=O)[C@@H](CCC(=O)O)NC(=O)[C@@H](Cc2ccc(C(F)(F)F)cc2)NC(=O)[C@@H](CC(N)=O)NC(=O)[C@@H](C)NC(=O)[C@@H](Cc2ccc(O)cc2)NC(=O)[C@@H](Cc2c[nH]c3ccccc23)NC1=O)[C@H](C)O` [compound 756] (Ac-[dT][S8][dW][dY][dA][dN][dPhe(4-CF3)][dE][R5][dL][dL][dR]-NH2; staple 2-9), for which the IC50 on MDM2 (setting [1]) was 10 to 100 nM; at MDMX, above 1000 nM.
As to `CC(=O)N[C@@H](C(=O)N[C@H](C)C(=O)N[C@H](Cc1c[nH]c2ccccc12)C(=O)N[C@H](Cc1ccc(O)cc1)C(=O)N[C@@]1(C)CCCCCCC=CCCC[C@](C)(C(=O)N[C@H](C)C(N)=O)NC(=O)[C@@H](CC(C)C)NC(=O)[C@@H](CC(C)C)NC(=O)[C@@H](CCCCN)NC(=O)[C@@H](CCC(=O)O)NC(=O)[C@@H](Cc2ccc(C(F)(F)F)cc2)NC(=O)[C@@H](CC(N)=O)NC1=O)[C@H](C)O` [compound 757] (Ac-[dT][dA][dW][dY][S8][dN][dPhe(4-CF3)][dE][dK][dL][dL][R5][dA]-NH2; staple 5-12), the figures for the IC50 on MDM2 (IC50 (MDM2)) and at MDMX were below 10 nM and above 1000 nM, respectively.
As to `CC(=O)N[C@@H](C(=O)N[C@H](C)C(=O)N[C@H](Cc1c[nH]c2ccccc12)C(=O)N[C@H](Cc1ccc(O)cc1)C(=O)N[C@H](C)C(=O)N[C@@]1(C)CCCCCCC=CCCC[C@](C)(C(=O)N[C@H](C)C(N)=O)NC(=O)[C@@H](CCCNC(=N)N)NC(=O)[C@@H](CC(C)C)NC(=O)[C@@H](CC(C)C)NC(=O)[C@@H](CCCCN)NC(=O)[C@@H](CCC(=O)O)NC(=O)[C@@H](Cc2ccc(C(F)(F)F)cc2)NC1=O)[C@H](C)O` [compound 758] (Ac-[dT][dA][dW][dY][dA][S8][dPhe(4-CF3)][dE][dK][dL][dL][dR][R5][dA]-NH2; staple 6-13), the results for the IC50 at MDM2 (setting [1]) and on MDMX were 10 to 100 nM and above 1000 nM, respectively.

These data come from patent publication US8927500B2, “Peptidomimetic macrocycles” (Aileron Therapeutics, Inc., priority 2012, dated 2015).
